Experimental data taken from ChEMBL document CHEMBL1150629, “Isolation and structure of pedilstatin from a republic of maldives Pedilanthus sp” (J Nat Prod, 2002).
In brackets after ≈: the same amount, converted by molar mass.

Assays:
P388 = assay: Cytotoxicity against mouse P388 cells; format: functional; details: read-out: ED50 (the source's name)
[1] = tested on: Human immunodeficiency virus 1; assay: Antiviral activity against HIV1 RF in human CEM-SS cells assessed as cell protection from infection at 2 to 5 uM after 7 days relative to control; format: functional
[2] = Inhibition of [20-3H]phorbol 12,13-dibutyrate binding to protein kinase C
CEM-SS = assay: Cytotoxicity against human CEM-SS cells assessed as inhibition of cell metabolic activity after 7 days by XTT assay; format: functional, cell-based; details: 168 h
[3] = tested on: Human immunodeficiency virus 1; assay: Antiviral activity against HIV1 RF in human CEM-SS cells assessed as cell protection from infection after 7 days; format: functional, organism-based; details: Human immunodeficiency virus 1, CEM-SS, 168 h

**Q.** For `CCC/C=C/C=C\C(=O)O[C@@H]1[C@@H](C)[C@]2(O)[C@@H]3C=C(C)C(=O)[C@@H]3CC(CO)=C[C@H]2[C@@H]2C(C)(C)[C@]12OC(C)=O` [PEDILSTATIN], which EC50 (P388) is on record?
**A.** Its EC50 is 0.28 µg/mL (≈ 0.546 µM).

**Q.** And the Activity [1]?
**A.** Its Activity is 80%.

**Q.** What about the Ki [2] of the same compound?
**A.** The Ki was 620 nM.

**Q.** What about the IC50 (CEM-SS) of the same compound?
**A.** Its IC50 is 13300 nM.

**Q.** And the EC50 [3]?
**A.** The EC50 was 1030 nM.
